Source: US12509459B2, “Inhibitors of NLRP3 inflammasome” (BioAge Labs, Inc., priority 2024, dated 2025)
Each block holds one molecule with its values, some of them ahead of it.

What was measured:
[1] = target: T1, NLRP3 (Homo sapiens, UniProt Q96P20); test: Cryo-EM NLRP3 epitope determination; type: binding; set-up: made in house; host or cells: Sf9 insect cells (baculovirus); details: cryo-EM of NLRP3·Compound 007 complex, 3.00 Å resolution, FIG. 1
Source text: Compound 007 of the disclosure was used as an exemplary compound for determining the epitope to NLRP3, using cryogenic electron microscopy (cryo-EM).
Full length, human NLRP3 (3-1036, UniProt accession code Q96P20), codon-optimized for Spodoptera frugiperda, was cloned in an in-house modified pACE-Bac1 vector containing an N-terminal MBP-tag, followed by a Tobacco etch virus (TEV) protease cleavage site. For recombinant protein expression of MBP-NLRP3, 1 L of Sf9 insect cells were infected with 3% v/v viral stock of the second virus passage. The expression culture was incubated for 72 h at 27° C. and 80 rpm, and was subsequently harvested by centrifugation at 2000 rpm for 20 min. […] Elution fractions were analyzed by SDS-PAGE and negative stain electron microscopy (EM), before they were plunge frozen for cryo-EM analysis.
The purified NLRP3·Compound 007 complex was applied onto glow-discharged EM-grids (Quantifoil Cu300 R2/1+2 nm carbon support film), incubated for 30s at 100% humidity and 4° C., before it was blotted for 5s with blot force 5 and plunge frozen into liquid ethane using a Vitrobot mark IV plunge freezing device (Thermo Fisher Scientific). […] Using the blob picker, 3,114,152 particles were picked and detected of which 2,058,399 were extracted (search particle diameter […], 588 box size), of which 559,748 particles remained after multiple rounds of 2D classification. […]
Target sequence in this assay (Q96P20 3-1036): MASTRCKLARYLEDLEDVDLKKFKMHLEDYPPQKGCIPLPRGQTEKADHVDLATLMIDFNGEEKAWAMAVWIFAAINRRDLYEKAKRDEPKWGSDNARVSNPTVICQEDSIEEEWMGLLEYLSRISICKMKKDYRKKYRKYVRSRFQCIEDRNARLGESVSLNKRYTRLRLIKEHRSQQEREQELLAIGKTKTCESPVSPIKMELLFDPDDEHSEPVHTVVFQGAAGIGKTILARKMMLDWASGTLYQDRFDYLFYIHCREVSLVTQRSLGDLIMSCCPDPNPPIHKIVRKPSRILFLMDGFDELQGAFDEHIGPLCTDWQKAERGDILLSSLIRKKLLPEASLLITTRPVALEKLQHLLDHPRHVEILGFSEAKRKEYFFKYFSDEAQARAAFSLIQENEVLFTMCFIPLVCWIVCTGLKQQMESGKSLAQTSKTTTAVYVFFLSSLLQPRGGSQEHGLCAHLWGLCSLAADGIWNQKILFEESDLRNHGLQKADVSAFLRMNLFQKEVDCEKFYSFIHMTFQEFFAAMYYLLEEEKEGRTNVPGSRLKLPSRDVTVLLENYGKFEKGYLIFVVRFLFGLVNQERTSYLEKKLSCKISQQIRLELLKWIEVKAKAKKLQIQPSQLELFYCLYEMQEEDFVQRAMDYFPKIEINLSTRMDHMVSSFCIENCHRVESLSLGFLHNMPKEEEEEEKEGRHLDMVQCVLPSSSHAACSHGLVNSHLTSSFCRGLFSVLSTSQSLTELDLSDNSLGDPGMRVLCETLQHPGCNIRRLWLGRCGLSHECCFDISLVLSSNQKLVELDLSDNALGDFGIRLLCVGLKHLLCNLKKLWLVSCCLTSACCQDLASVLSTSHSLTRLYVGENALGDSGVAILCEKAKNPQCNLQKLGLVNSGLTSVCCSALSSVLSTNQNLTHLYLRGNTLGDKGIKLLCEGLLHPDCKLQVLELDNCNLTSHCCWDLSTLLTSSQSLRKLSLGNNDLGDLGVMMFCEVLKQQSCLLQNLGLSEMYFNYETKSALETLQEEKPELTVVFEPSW

[2] = target: T1, NLRP3; test: THP-1 cell-based NLRP3 activation assay; set-up: endogenous in cells; host or cells: THP-1 cells (PMA-differentiated, LPS-primed, nigericin-stimulated); details: PMA-differentiated THP-1 cells, LPS 100 ng/mL then 10 μM nigericin
Procedure, shortened: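 After 30 min compound preincubation, inflammasome activation was triggered with 10 μM nigericin (1 h) in LPS-primed (100 ng/mL, 3 h) THP-1 cells differentiated with PMA at 20 nM/24 h or 500 nM/3 h. CellTiter-Glo measured residual cell viability.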
Target sequence in this assay (Q96P20 whole entry): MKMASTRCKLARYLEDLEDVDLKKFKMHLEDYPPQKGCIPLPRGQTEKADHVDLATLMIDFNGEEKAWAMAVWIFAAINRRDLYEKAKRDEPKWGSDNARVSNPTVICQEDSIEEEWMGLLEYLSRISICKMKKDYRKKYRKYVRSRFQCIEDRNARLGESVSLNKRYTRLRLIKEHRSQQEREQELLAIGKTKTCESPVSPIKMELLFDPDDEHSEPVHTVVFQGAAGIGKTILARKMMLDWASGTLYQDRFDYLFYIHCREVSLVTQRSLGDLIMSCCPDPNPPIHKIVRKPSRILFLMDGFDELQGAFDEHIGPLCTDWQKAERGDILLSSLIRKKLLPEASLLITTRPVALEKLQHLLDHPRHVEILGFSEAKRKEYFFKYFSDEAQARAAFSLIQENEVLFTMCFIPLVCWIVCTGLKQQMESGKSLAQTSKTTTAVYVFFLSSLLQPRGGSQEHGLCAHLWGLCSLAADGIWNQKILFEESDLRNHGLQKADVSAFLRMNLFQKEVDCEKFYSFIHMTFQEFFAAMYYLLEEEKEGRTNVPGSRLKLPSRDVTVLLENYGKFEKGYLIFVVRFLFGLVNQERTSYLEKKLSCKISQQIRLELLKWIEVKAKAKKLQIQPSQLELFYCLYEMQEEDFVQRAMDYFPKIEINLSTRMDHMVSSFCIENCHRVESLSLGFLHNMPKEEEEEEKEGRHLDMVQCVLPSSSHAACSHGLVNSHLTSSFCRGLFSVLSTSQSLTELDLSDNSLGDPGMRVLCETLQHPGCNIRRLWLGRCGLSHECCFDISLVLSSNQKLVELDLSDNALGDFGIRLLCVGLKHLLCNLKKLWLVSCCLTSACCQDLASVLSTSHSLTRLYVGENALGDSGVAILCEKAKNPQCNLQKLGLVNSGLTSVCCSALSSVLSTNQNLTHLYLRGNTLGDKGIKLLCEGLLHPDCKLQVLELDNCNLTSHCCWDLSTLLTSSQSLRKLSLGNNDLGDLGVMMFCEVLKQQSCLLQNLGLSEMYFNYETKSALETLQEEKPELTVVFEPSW

[3] = system: DIO mice; test: Diet-induced obesity (DIO) mouse model; type: in vivo; details: for Day 28 BW % change vs. DIO/VEH / Day 28 BW % change vs. baseline / Day 14 BW % change vs. baseline: po; for body weight of high fat DIO mice / food consumption of high fat DIO mice: summary, comparable to the effect of Semaglutide; for fat mass: FIG. 15
[4] = system: foot gout mouse model; test: Foot gout mouse model; type: in vivo; details: for swelling: FIG. 16 and FIG. 17
[5] = DIO mice, 5 to 100/75 mpk QD PO, FIG. 10
[6] = DIO mice, 100/75 mpk, qd (75 mpk since day 9)
[7] = DIO mice, doses of 50 mpk or higher, FIG. 11
[8] = DIO mice, doses of 50 mpk or higher, treatment for 4 weeks, FIG. 13
[9] = Compound 096/211 study, FIGS. 14A and 14B
[10] = DIO mice, Compound 096/211 study, FIG. 14
[11] = DIO mice, Compound 096/211 study

- IC50 [2]: < 100 nM
Compound: CCOc1cc(C(=O)N(Cc2ccc(C)c3cn[nH]c23)[C@H]2C[C@@H](NC)C2)ccc1-c1cccc(Cl)c1 [Compound 286]

- IC50 [2]: 500 to 1000 nM
Compound: CCOc1cc(C(=O)N(Cc2cncc3cn[nH]c23)[C@H]2CC[C@@H]2N)ccc1-c1cccc(Cl)c1 [Compound 287]

- IC50 [2]: 100 to 500 nM
Compound: CCOc1cc(C(=O)N(Cc2cncc3cn[nH]c23)[C@H]2CC[C@@H]2N(C)C)ccc1-c1cccc(Cl)c1 [Compound 288]

- IC50 [2]: < 100 nM
Compound: CCOc1cc(C(=O)N(Cc2cncc3cn[nH]c23)[C@H]2C[C@@H](N)C2)ccc1-c1cccc(C#N)c1 [Compound 289]

- IC50 [2]: < 100 nM
Compound: CCOc1cc(C(=O)N(Cc2cncc3cn[nH]c23)[C@H]2C[C@@H](N(C)C)C2)ccc1-c1cccc(C#N)c1 [Compound 290]

- IC50 [2]: < 100 nM
Compound: CCOc1cc(C(=O)N(Cc2cncc3cn[nH]c23)[C@H]2C[C@@H](NC)C2)ccc1-c1cccc(C#N)c1 [Compound 291]

- IC50 [2]: < 100 nM
Compound: CCOc1cc(C(=O)N(Cc2cccc3cn[nH]c23)[C@H]2C[C@@H](N)C2)ccc1-c1cccc(C#N)c1 [Compound 292]

- IC50 [2]: < 100 nM
Compound: CCOc1cc(C(=O)N(Cc2cccc3cn[nH]c23)[C@H]2C[C@@H](N(C)C)C2)ccc1-c1cccc(C#N)c1 [Compound 293]

- IC50 [2]: 500 to 1000 nM
Compound: CCOc1cc(C(=O)N(Cc2cncc3cn[nH]c23)[C@H]2CC[C@@H]2N)ccc1-c1cccc(F)c1 [Compound 294]

- IC50 [2]: 100 to 500 nM
Compound: CCOc1cc(C(=O)N(Cc2cncc3cn[nH]c23)[C@H]2CC[C@H]2N)ccc1-c1cccc(Cl)c1 [Compound 295]

- IC50 [2]: 100 to 500 nM
Compound: CCOc1cc(C(=O)N(C)[C@H](CCC2CN(C)C2)c2cccc3cn[nH]c23)ccc1-c1cccc(F)c1 [Compound 297]

- IC50 [2]: < 100 nM
Compound: CCOc1cc(C(=O)N(C)[C@H](c2cccc3cn[nH]c23)C2CN(C)C2)ccc1-c1cccc(F)c1 [Compound 298]

- IC50 [2]: 1000 to 15000 nM
Compound: CCOc1cc(C(=O)N(C)[C@@H](CCN)c2cnc(C)c3cn[nH]c23)ccc1C [Compound 299]

- IC50 [2]: 100 to 500 nM
Compound: CCOc1cc(C(=O)N(Cc2cncc3cn[nH]c23)[C@H]2CC[C@H]2N)ccc1-c1cccc(F)c1 [Compound 300]

The next lines start with the molecule.

Compound: CCOc1cc(C(=O)N(C)[C@H](CCO)c2cncc3cn[nH]c23)ccc1-c1cccc(F)c1 [Compound 007]
- binding site on NLRP3 [1]: binds in a pocket on the surface of the NACHT domain of NLRP3
- IC50 [2]: < 100 nM

Compound: CCOc1cc(C(=O)N(C)[C@H](CCN(C)C)c2cncc3cn[nH]c23)ccc1-c1cccc(F)c1 [Compound 040]
- body weight of DIO mice ([3]; 5 to 100/75 mpk QD PO, FIG. 8): dose-dependent effect on reducing body weight
- Day 28 BW % change vs. DIO/VEH ([3]; DIO mice, 5 mpk, qd): 0.6%
- Day 28 BW % change vs. baseline ([3]; DIO mice, 5 mpk, qd): 4.6%
- food consumption ([3]; DIO mice, 5 to 100/75 mpk QD PO, FIG. 9): dose-dependent effect on reducing food consumption
- fat mass to body weight percentage [3, 5]: dose-dependent effect on reducing fat mass to body weight percentage
- lean mass to body weight percentage [3, 5]: maintaining lean mass to body weight percentage
- Day 28 BW % change vs. DIO/VEH ([3]; DIO mice, 20 mpk, qd): −2.7%
- Day 28 BW % change vs. baseline ([3]; DIO mice, 20 mpk, qd): 1.3%
- Day 28 BW % change vs. DIO/VEH ([3]; DIO mice, 50 mpk, qd): −11.6%
- Day 28 BW % change vs. baseline ([3]; DIO mice, 50 mpk, qd): −7.6%
- Day 28 BW % change vs. DIO/VEH [3, 6]: −22.0%
- Day 28 BW % change vs. baseline [3, 6]: −17.9%
- inguinal fat to body weight percentage or muscle tissues to body weight percentage ([3]; DIO mice, compared with Semaglutide treated mice, FIG. 13): no significant difference from Semaglutide treated mice
- fasting glucose [3, 7]: significantly reduced fasting glucose
- insulin sensitivity [3, 7]: improved insulin sensitivity
- inguinal fat weight [3, 8]: significantly reduced
- liver weight [3, 8]: significantly reduced
- body weight of high fat DIO mice [3]: significantly reduced
- food consumption of high fat DIO mice [3]: significantly reduced
- treatment mode in foot gout model [4]: can be used as both a preventative and therapeutic treatment
- swelling [4]: reduce swelling in a foot gout mouse model in a dose dependent manner
- IC50 [2]: < 100 nM

Compound: CCOc1cc(C(=O)N(C)[C@H](CCN(C)C)c2cncc3cn[nH]c23)ccc1-c1ccccc1 [Compound 096]
- body weight of DIO mice [3, 9]: dose-dependent effect on reducing body weight
- Day 14 BW % change vs. baseline ([3]; DIO mice, 50 mpk, qd): −11.9%
- food consumption [3, 10]: dose-dependent effect on reducing food consumption
- fat mass [3, 11]: caused a change in fat mass
- body weight of high fat DIO mice [3]: significantly reduced
- food consumption of high fat DIO mice [3]: significantly reduced
- swelling [4]: reduce swelling in a foot gout mouse model in a dose dependent manner
- IC50 [2]: < 100 nM

Compound: [2H]C([2H])([2H])N(CC[C@H](c1cncc2cn[nH]c12)N(C)C(=O)c1ccc(-c2cccc(F)c2)c(OCC)c1)C([2H])([2H])[2H] [Compound 211]
- body weight of DIO mice [3, 9]: dose-dependent effect on reducing body weight
- Day 14 BW % change vs. baseline ([3]; DIO mice, 50 mpk, qd): −14.9%
- food consumption [3, 10]: dose-dependent effect on reducing food consumption
- fat mass [3, 11]: caused a change in fat mass
- body weight of high fat DIO mice [3]: significantly reduced
- food consumption of high fat DIO mice [3]: significantly reduced
- IC50 [2]: < 100 nM

Compound: CCOc1cc(C(=O)N(C)[C@H](c2c[nH]cn2)c2cncc3cn[nH]c23)ccc1-c1cccc(F)c1 [Compound 267]
- IC50 [2]: 100 to 500 nM

Compound: CCOc1cc(C(=O)N(Cc2cnc(C)c3cn[nH]c23)[C@H]2C[C@@H](NC)C2)ccc1-c1cccc(Cl)c1 [Compound 277]
- IC50 [2]: < 100 nM

Compound: CCOc1cc(C(=O)N(Cc2cnc(C)c3cn[nH]c23)[C@H]2C[C@@H](NC)C2)ccc1-c1cccc(F)c1 [Compound 278]
- IC50 [2]: < 100 nM

Compound: CCOc1cc(C(=O)N(C)[C@H](CCN(C)C)c2cncc3cn[nH]c23)ccc1-c1cc(F)cc(C#N)c1 [Compound 279]
- IC50 [2]: < 100 nM

Compound: CCOc1cc(C(=O)N(C)[C@H](CCNC)c2cncc3cn[nH]c23)ccc1-c1cc(F)cc(C#N)c1 [Compound 280]
- IC50 [2]: < 100 nM

Compound: CN(C(=O)c1ccc(-c2cccc(Cl)c2)c(OC2CC2)c1)[C@H](CCN1CCC1)c1cncc2cn[nH]c12 [Compound 281]
- IC50 [2]: 1000 to 15000 nM

Compound: CCOc1cc(C(=O)N(C)[C@@H](c2cccc3cn[nH]c23)C2CN(C)C2)ccc1-c1cccc(Cl)c1 [Compound 282]
- IC50 [2]: < 100 nM

Compound: CCOc1cc(C(=O)N(C)[C@H](c2cccc3cn[nH]c23)C2CN(C)C2)ccc1-c1cccc(Cl)c1 [Compound 283]
- IC50 [2]: < 100 nM

Compound: CCOc1cc(C(=O)N(Cc2ccc(C)c3cn[nH]c23)[C@H]2C[C@@H](N(C)C)C2)ccc1-c1cccc(Cl)c1 [Compound 285]
- IC50 [2]: < 100 nM
